# Assay results reported in paper PMC8963254, “Effects of Lysine N-ζ-Methylation in Ultrashort Tetrabasic Lipopeptides (UTBLPs) on the Potentiation of Rifampicin, Novobiocin, and Niclosamide in Gram-Negative Bacteria” (Antibiotics, 2022).
# Read-outs that look alike come from different tables or passages of the source. Non-standard residues stand in square brackets, D forms with d. Residues, ends and D or L forms follow the SMILES beside them. *: point of attachment. Lys(Me3) = C[N+](C)(C)CCCC[C@H](N)C(=O)O; Octanoyl = CCCCCCCC(=O)*
# How the values were obtained:
# [1] = test system: E. faecalis ATCC 29212; format: cell-based, Enterococcus faecalis; settings: ATCC 29212, 18 h
# How it was run: (§1)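 Turbidity at 590 nm defined growth, from which the MIC was taken. Cultures at a final density of 5 × 10^5 CFU/mL were exposed to a range of compound levels at 37 °C for 18 h in a CLSI-based microdilution format.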
# [2] = test system: S. aureus ATCC 29213; format: cell-based, Staphylococcus aureus
# How it was run: (§2)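 Values derive from a two-agent checkerboard with an 18 h, 37 °C incubation. FICI cut-offs: ≤0.5 synergy, 0.5–4 additive, >4 antagonism.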
# [3] = test system: MRSA ATCC 33592; format: cell-based, Staphylococcus aureus
# How it was run: as §2
# [4] = test system: E. coli 94474; format: cell-based, Escherichia coli; settings: for MICUTBLP: UTBLP alone
# How it was run: as §2
# [5] = test system: A. baumannii AB92247; test: microbe, parasite or virus in culture; format: cell-based, Acinetobacter baumannii; settings: AB92247, 18 h
# How it was run: as §1
# [6] = test system: A. baumannii AB027; test: microbe, parasite or virus in culture; format: cell-based, Acinetobacter baumannii; settings: AB027, 18 h
# How it was run: as §1
# [7] = test system: A. baumannii ATCC 17978; format: cell-based, Acinetobacter baumannii; settings: for MICUTBLP: UTBLP alone
# How it was run: as §2
# [8] = test system: A. baumannii 92247; format: cell-based, Acinetobacter baumannii; settings: for MICUTBLP: UTBLP alone
# How it was run: as §2
# [9] = test system: A. baumannii AB027; format: cell-based, Acinetobacter baumannii; settings: for MICUTBLP: UTBLP alone
# How it was run: as §2
# [10] = test system: K. pneumoniae 113250; format: cell-based, Klebsiella pneumoniae; settings: for MICUTBLP: UTBLP alone
# How it was run: as §2
# [11] = test system: P. aeruginosa PA262-101856; format: cell-based, Pseudomonas aeruginosa; settings: for MICUTBLP: UTBLP alone
# How it was run: as §2
# [12] = test system: P. aeruginosa PA259-96196; format: cell-based, Pseudomonas aeruginosa; settings: for MICUTBLP: UTBLP alone
# How it was run: as §2
# [13] = test system: P. aeruginosa PAO1; format: cell-based, Pseudomonas aeruginosa; settings: for MICUTBLP: UTBLP alone
# How it was run: as §2
# [14] = test system: E. cloacae 118564; format: cell-based, Enterobacter cloacae; settings: for MICUTBLP: UTBLP alone
# How it was run: as §2
# [15] = test system: A. baumannii ATCC 17978; format: cell-based, Acinetobacter baumannii; settings: ATCC 17978, 18 h
# How it was run: as §1
# [16] = test system: E. faecium ATCC 27270; format: cell-based, Enterococcus faecium; settings: ATCC 27270, 18 h
# How it was run: as §1
# [17] = UTBLP alone, plate with chloramphenicol
# [18] = UTBLP in combination with chloramphenicol
# [19] = chloramphenicol in combination with the UTBLP
# [20] = UTBLP in combination with novobiocin
# [21] = UTBLP in combination with rifampicin
# [22] = novobiocin in combination with the UTBLP
# [23] = rifampicin in combination with the UTBLP
# [24] = UTBLP in combination with niclosamide
# [25] = niclosamide in combination with the UTBLP
smiles,measurement,setting,value
CCCCCCCC(=O)NCCCC[C@H](NC(=O)CCCCCCC)C(=O)N[C@@H](CCCC[N+](C)(C)C)C(=O)N[C@@H](CCCC[N+](C)(C)C)C(=O)N[C@@H](CCCC[N+](C)(C)C)C(=O)N[C@@H](CCCC[N+](C)(C)C)C(N)=O [UTBLP 8] (Octanoyl-K(Octanoyl)[Lys(Me3)][Lys(Me3)][Lys(Me3)][Lys(Me3)]-NH2),MIC,[1],128 µg/mL
same,MICUTBLP,[2]; [17],> 128 µg/mL
same,MICUTBLP [MICcombo],[2]; [18],0.25 µg/mL
same,MICchloramphenicol [MICcombo],[2]; [19],8 µg/mL
same,Interpretation,[3]; UTBLP + chloramphenicol,Additive (0.5 < x ≤ 4 is additive)
same,MICUTBLP,[3]; [17],> 128 µg/mL
same,MICUTBLP [MICcombo],[3]; [18],0.25 µg/mL
same,MICchloramphenicol [MICcombo],[3]; [19],64 µg/mL
same,Interpretation,[4]; UTBLP + novobiocin,Synergy (FICI ≤ 0.5 is synergistic)
same,Interpretation,[4]; UTBLP + rifampicin,Additive (0.5 < x ≤ 4 is additive)
same,MICUTBLP,[4]; plate with novobiocin,> 128 µg/mL
same,MICUTBLP,[4]; plate with rifampicin,> 128 µg/mL
same,MICUTBLP [MICcombo],[4]; [20],8 µg/mL
same,MICUTBLP [MICcombo],[4]; [21],16 µg/mL
same,MICantibiotic [MICcombo],[4]; [22],64 µg/mL
same,MICantibiotic [MICcombo],[4]; [23],4 µg/mL
same,MIC,[5],128 µg/mL
same,MIC,[6],> 128 µg/mL
same,Interpretation,[7]; UTBLP + chloramphenicol,Additive (0.5 < x ≤ 4 is additive)
same,Interpretation,[7]; UTBLP + niclosamide,Synergy (FICI ≤ 0.5 is synergistic)
same,Interpretation,[7]; UTBLP + novobiocin,Synergy (FICI ≤ 0.5 is synergistic)
same,Interpretation,[7]; UTBLP + rifampicin,Synergy (FICI ≤ 0.5 is synergistic)
same,MICUTBLP,[7]; plate with chloramphenicol,> 128 µg/mL
same,MICUTBLP,[7]; plate with niclosamide,> 128 µg/mL
same,MICUTBLP,[7]; plate with novobiocin,> 128 µg/mL
same,MICUTBLP,[7]; plate with rifampicin,> 128 µg/mL
same,MICUTBLP [MICcombo],[7]; [18],0.25 µg/mL
same,MICUTBLP [MICcombo],[7]; [24],2 µg/mL
same,MICUTBLP [MICcombo],[7]; [20],16 µg/mL
same,MICUTBLP [MICcombo],[7]; [21],16 µg/mL
same,MICantibiotic [MICcombo],[7]; [19],64 µg/mL
same,MICantibiotic [MICcombo],[7]; [25],16 µg/mL
same,MICantibiotic [MICcombo],[7]; [22],4 µg/mL
same,MICantibiotic [MICcombo],[7]; [23],0.25 µg/mL
same,Interpretation,[8]; UTBLP + novobiocin,Synergy (FICI ≤ 0.5 is synergistic)
same,Interpretation,[8]; UTBLP + rifampicin,Synergy (FICI ≤ 0.5 is synergistic)
same,MICUTBLP,[8]; plate with novobiocin,128 µg/mL
same,MICUTBLP,[8]; plate with rifampicin,128 µg/mL
same,MICUTBLP [MICcombo],[8]; [20],16 µg/mL
same,MICUTBLP [MICcombo],[8]; [21],16 µg/mL
same,MICantibiotic [MICcombo],[8]; [22],0.125 µg/mL
same,MICantibiotic [MICcombo],[8]; [23],0.5 µg/mL
same,Interpretation,[9]; UTBLP + novobiocin,Synergy (FICI ≤ 0.5 is synergistic)
same,Interpretation,[9]; UTBLP + rifampicin,Synergy (FICI ≤ 0.5 is synergistic)
same,MICUTBLP,[9]; plate with novobiocin,> 128 µg/mL
same,MICUTBLP,[9]; plate with rifampicin,> 128 µg/mL
same,MICUTBLP [MICcombo],[9]; [20],16 µg/mL
same,MICUTBLP [MICcombo],[9]; [21],16 µg/mL
same,MICantibiotic [MICcombo],[9]; [22],2 µg/mL
same,MICantibiotic [MICcombo],[9]; [23],0.25 µg/mL
same,Interpretation,[10]; UTBLP + novobiocin,Synergy (FICI ≤ 0.5 is synergistic)
same,Interpretation,[10]; UTBLP + rifampicin,Synergy (FICI ≤ 0.5 is synergistic)
same,MICUTBLP,[10]; plate with novobiocin,> 128 µg/mL
same,MICUTBLP,[10]; plate with rifampicin,> 128 µg/mL
same,MICUTBLP [MICcombo],[10]; [20],16 µg/mL
same,MICUTBLP [MICcombo],[10]; [21],16 µg/mL
same,MICantibiotic [MICcombo],[10]; [22],32 µg/mL
same,MICantibiotic [MICcombo],[10]; [23],4 µg/mL
same,Interpretation,[11]; UTBLP + novobiocin,Additive (0.5 < x ≤ 4 is additive)
same,Interpretation,[11]; UTBLP + rifampicin,Additive (0.5 < x ≤ 4 is additive)
same,MICUTBLP,[11]; plate with novobiocin,> 128 µg/mL
same,MICUTBLP,[11]; plate with rifampicin,> 128 µg/mL
same,MICUTBLP [MICcombo],[11]; [20],16 µg/mL
same,MICUTBLP [MICcombo],[11]; [21],16 µg/mL
same,MICantibiotic [MICcombo],[11]; [22],1024 µg/mL
same,MICantibiotic [MICcombo],[11]; [23],512 µg/mL
same,Interpretation,[12]; UTBLP + novobiocin,Additive (0.5 < x ≤ 4 is additive)
same,Interpretation,[12]; UTBLP + rifampicin,Additive (0.5 < x ≤ 4 is additive)
same,MICUTBLP,[12]; plate with novobiocin,> 128 µg/mL
same,MICUTBLP,[12]; plate with rifampicin,> 128 µg/mL
same,MICUTBLP [MICcombo],[12]; [20],16 µg/mL
same,MICUTBLP [MICcombo],[12]; [21],16 µg/mL
same,MICantibiotic [MICcombo],[12]; [22],1024 µg/mL
same,MICantibiotic [MICcombo],[12]; [23],16 µg/mL
same,Interpretation,[13]; UTBLP + chloramphenicol,Additive (0.5 < x ≤ 4 is additive)
same,Interpretation,[13]; UTBLP + niclosamide,Additive (0.5 < x ≤ 4 is additive)
same,Interpretation,[13]; UTBLP + novobiocin,Additive (0.5 < x ≤ 4 is additive)
same,Interpretation,[13]; UTBLP + rifampicin,Additive (0.5 < x ≤ 4 is additive)
same,MICUTBLP,[13]; plate with chloramphenicol,> 128 µg/mL
same,MICUTBLP,[13]; plate with niclosamide,> 128 µg/mL
same,MICUTBLP,[13]; plate with novobiocin,> 128 µg/mL
same,MICUTBLP,[13]; plate with rifampicin,> 128 µg/mL
same,MICUTBLP [MICcombo],[13]; [18],0.25 µg/mL
same,MICUTBLP [MICcombo],[13]; [24],0.25 µg/mL
same,MICUTBLP [MICcombo],[13]; [20],0.25 µg/mL
same,MICUTBLP [MICcombo],[13]; [21],0.25 µg/mL
same,MICantibiotic [MICcombo],[13]; [19],16 µg/mL
same,MICantibiotic [MICcombo],[13]; [25],1024 µg/mL
same,MICantibiotic [MICcombo],[13]; [22],512 µg/mL
same,MICantibiotic [MICcombo],[13]; [23],16 µg/mL
same,Interpretation,[14]; UTBLP + novobiocin,Synergy (FICI ≤ 0.5 is synergistic)
same,Interpretation,[14]; UTBLP + rifampicin,Additive (0.5 < x ≤ 4 is additive)
same,MICUTBLP,[14]; plate with novobiocin,> 128 µg/mL
same,MICUTBLP,[14]; plate with rifampicin,> 128 µg/mL
same,MICUTBLP [MICcombo],[14]; [20],16 µg/mL
same,MICUTBLP [MICcombo],[14]; [21],16 µg/mL
same,MICantibiotic [MICcombo],[14]; [22],32 µg/mL
same,MICantibiotic [MICcombo],[14]; [23],4 µg/mL
same,MIC,[15],>128 µg/mL
same,MIC,[16],128 µg/mL
